Patent US20070266957A1 (priority 2004, published 2007)
Like-named read-outs stand apart in the source and are kept apart here.

Test system: influenza virus (H3N2 type human vaccine New Caledonia strain)
Assay type: cell-based

With hinokitiol copper complex the anti-influenza virus activity was “ineffective”, the FFU (concentration 0.8 μg/ml) was 280 FFU and the FFU (concentration 4 μg/ml) was “Exfoliation”. For the same substance, the FFU (concentration 20 μg/ml) was “Exfoliation” and the FFU (concentration 100 μg/ml) was “Exfoliation”.
